For this experiment, the target named is Ubiquitin carboxyl-terminal hydrolase 28 (Homo sapiens) (UniProt Q96RU2). The experiment is described as follows: Concentration-response biochemical assay confirming initial hits as inhibitors of ubiquitin-specific protease 28 (AID 1645866). Particulars: purified USP28, ubiquitin-rhodamine fluorescence, 30 min.

Active and inactive are the calls of the source.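 The calls were made as follows: active = in confirmatory dose-response testing, peak deubiquitinase inhibition of 30% or more; inactive = the rest.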

Ubiquitin carboxyl-terminal hydrolase 28 (Homo sapiens), sequence (Q96RU2 whole entry, looked up): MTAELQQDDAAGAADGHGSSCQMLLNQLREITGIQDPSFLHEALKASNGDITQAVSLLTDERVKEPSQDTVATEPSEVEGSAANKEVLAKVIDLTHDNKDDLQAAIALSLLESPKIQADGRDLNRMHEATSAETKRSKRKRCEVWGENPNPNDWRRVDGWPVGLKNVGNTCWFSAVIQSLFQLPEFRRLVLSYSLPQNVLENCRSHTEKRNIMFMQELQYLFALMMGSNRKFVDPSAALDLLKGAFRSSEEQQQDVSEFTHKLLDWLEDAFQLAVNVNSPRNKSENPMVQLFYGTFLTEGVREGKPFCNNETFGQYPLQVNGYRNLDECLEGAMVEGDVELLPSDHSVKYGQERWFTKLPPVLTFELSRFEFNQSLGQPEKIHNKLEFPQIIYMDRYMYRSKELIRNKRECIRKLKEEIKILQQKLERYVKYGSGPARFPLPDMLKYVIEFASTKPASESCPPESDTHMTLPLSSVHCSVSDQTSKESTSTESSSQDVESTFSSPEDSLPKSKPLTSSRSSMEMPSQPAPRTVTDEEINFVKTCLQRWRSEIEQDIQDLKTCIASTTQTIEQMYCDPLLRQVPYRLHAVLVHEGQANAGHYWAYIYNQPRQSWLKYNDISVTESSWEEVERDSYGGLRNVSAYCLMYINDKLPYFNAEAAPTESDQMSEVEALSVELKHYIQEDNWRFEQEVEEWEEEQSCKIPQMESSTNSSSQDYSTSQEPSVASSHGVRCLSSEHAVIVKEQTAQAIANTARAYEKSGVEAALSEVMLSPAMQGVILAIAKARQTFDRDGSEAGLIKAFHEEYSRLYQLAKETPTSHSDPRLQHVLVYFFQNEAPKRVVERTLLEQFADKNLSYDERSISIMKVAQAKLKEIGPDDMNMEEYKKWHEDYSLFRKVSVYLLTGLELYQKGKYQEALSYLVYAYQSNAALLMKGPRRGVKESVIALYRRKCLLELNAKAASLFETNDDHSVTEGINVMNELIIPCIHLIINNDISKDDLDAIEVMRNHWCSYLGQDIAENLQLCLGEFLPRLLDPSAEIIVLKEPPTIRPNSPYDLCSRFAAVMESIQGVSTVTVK

As a reminder, the IC50 is the concentration that gives 50% inhibition. For `COc1ccc(CCN2COc3c(cc(Cl)c4cccnc34)C2)cc1OC`, the half-inhibitory concentration (IC50) was 14.1 µM.
As for `CN(C)c1ccc(C2CC(c3c(O)n(C)c(=O)[nH]c3=O)=Nc3ccccc3S2)cc1` (stereo not drawn), the figure is 2.12 µM; as for `Cc1noc(-c2cc(=O)n(CC(=O)NCc3ccccc3F)c3ccccc23)n1`, 9.89 µM.
Regarding `Cc1nc(N2CCCC2)ncc1-c1cc(=O)[nH]c(N2CCc3ccccc3C2)n1`, the half-inhibitory concentration (IC50) is 21.9 µM.
As for `COc1ccc2nc(Nc3ncc4c(n3)CCCC4=O)nc(C)c2c1`, the figure is > 5 µM (inactive); as for `COC1=CC(=O)c2c(O)c(C)c(CC(C)=O)c(O)c2C1=O`, > 50 µM (inactive); as for `Cc1cc(C)n(-c2ccc(C(=O)Nc3cccc(S(=O)(=O)N4CCCC4)c3)cc2)n1`, 2.13 µM.
For `Cc1ccc2[nH]cc(S(=O)(=O)c3ccc(C)c(F)c3)c(=O)c2c1` the value was 19.9 µM; for `COc1ccc(C(=O)NCC(c2ccc3c(c2)CCCN3C)N2CCCC2)cc1` (stereo not drawn), > 50 µM (inactive); for `COc1ccc2nc(Nc3nc(-c4cnc(N5CCOCC5)nc4C)cc(=O)[nH]3)nc(C)c2c1`, > 50 µM (inactive).
As to `Cc1cc(N2CCN(c3ncccn3)CC2)nc2ccc(NC(=O)c3ccncc3)cc12`, the IC50 is 7.27 µM.
For `CC(C)Cc1nc2sc3c(NCCN4CCOCC4)ncnc3c2c2c1CCC2` the value was 0.828 µM.
As to `COC(=O)c1sc2ccccc2c1NC(=O)c1ccc(Br)s1`, the half-inhibitory concentration (IC50) is 15.8 µM.
As for `Cc1ccc(Cn2nnc(-c3noc(-c4ccc[nH]4)n3)c2C)cc1`, the figure is 11.6 µM; as for `O=C1CC(O)C(C2=CC(=O)c3c(O)cccc3C2=O)O1` (stereo not drawn), 1.91 µM.
For `CC(C)(C)N=C1Nc2ncccc2NC12CCCN(C(=O)c1ccccc1)C2` (stereo not drawn), the IC50 is > 50 µM (inactive).
For `O=C(Nc1nnc2n1CCCS2)c1cc2ccccc2o1` the value was 4.43 µM; for `COc1ccccc1CNC(=O)c1ccccc1OCc1ccccc1Cl`, > 50 µM (inactive); for `COc1ccccc1-c1nc(-c2nnn(Cc3ccc(C)cc3)c2C)no1`, 5.47 µM.
For `COc1ccc(NC(=O)COc2ccc3ccc(=O)oc3c2)cc1` the value was 31.1 µM; for `Nc1ncnc2c1ncn2[C@@H]1O[C@H](CO)C[C@@H]1O`, 26.4 µM.
For `O=C1c2c(O)c(Cl)cc3c2[C@@]2(Oc4cc(Cl)c(O)c5c4[C@]3(O2)[C@@H]2O[C@@H]2C5=O)[C@@H]2O[C@H]12` the value was 0.495 µM; for `CN1C(=O)c2cc(NC(=O)c3ccccc3Cl)ccc2Oc2ccccc21`, 1.25 µM.
For `Cc1cc(O)cc2cc3c(c(O)c12)C(=O)CCC3O` (stereo not drawn), the IC50 was > 50 µM (inactive).
As for `O=C1CC(c2ccco2)Cc2[nH]c(=O)c(-c3nc(-c4ccc(Cl)cc4)cs3)cc21` (stereo not drawn), the figure is > 50 µM (inactive); as for `COc1ccc(CCNC(=O)CCCCn2c(=O)c3ccccc3n(Cc3cccc(Cl)c3)c2=O)cc1OC`, 21.1 µM; as for `Cc1cc(O)c(=O)cc2c1C[C@H]1CC(C)(C)/C=C/C[C@@]3(C)Oc4cc(=O)c(O)cc(C)c4C[C@@H]3C[C@H](O)[C@]1(C)O2`, > 50 µM (inactive).
As for `COc1ccc(NC(=O)Cn2c(CS(=O)(=O)c3ccc(C)cc3)nc3ccccc32)cc1`, the figure is 12.4 µM; as for `CC(OC(=O)c1cn(-c2ccccc2)nc1-c1cccnc1)C(=O)Nc1cccc(S(=O)(=O)N(C)C)c1` (stereo not drawn), 30.9 µM; as for `O=C(Cc1ccccc1F)Nc1nc(-c2ccco2)c(-c2ccco2)s1`, > 50 µM (inactive).
For `O=C(COc1ccccc1-c1nnc(-c2ccccc2)o1)Nc1ccc(F)cc1F` the value was 3.36 µM; for `O=C(NC1(O)C(=O)c2ccccc2C1=O)c1ccc(-c2csnn2)cc1`, 36.5 µM.
With `O=C(Nc1ccc2c(c1)OCCO2)C1CCN(C(=O)c2ccccc2)CC1`, the IC50 is 9.44 µM.
For `CC(C)N1CC[C@@H]2[C@H](C1)CN2C(=O)Nc1cccc(F)c1` the value was > 50 µM (inactive).
As for `Cc1cc(N2CCOCC2)nc2ccc(NC(=O)CCC(=O)Nc3ccc(F)cc3)cc12`, the figure is 19.7 µM; as for `O=C(Cn1cc(C(=O)C(F)(F)F)c2ccccc21)N1CCc2ccccc21`, 2.68 µM.
For `COc1cc(OC)c(NC(=O)Cn2c(=O)n(Cc3ccccc3Cl)c(=O)c3cc(OC)c(OC)cc32)cc1Cl` the value was 3.28 µM; for `Cc1nnc(NC(=O)C2CCN(c3ccc(S(N)(=O)=O)cc3[N+](=O)[O-])CC2)o1`, 11.1 µM.
As for `COc1cccc(-c2nc3cnccn3c2NCc2ccc3c(c2)OCO3)c1`, the IC50 was > 50 µM (inactive).
For `O=C(CNC(=O)c1cccc(F)c1)Nc1nc2ccccc2[nH]1` the value was 24.5 µM; for `CCC(C)c1ccc(O[C@@H]2O[C@@H]3COC(c4ccccc4)O[C@H]3[C@H](O)[C@H]2NC(C)=O)cc1` (stereo partly drawn), 20.2 µM; for `Cc1ccc(CNC(=O)Cn2cnc3c(cnn3-c3cccc(Cl)c3)c2=O)cc1`, 2.58 µM.
`CN(C)S(=O)(=O)c1ccc(N2CCCC2)c(C(=O)Nc2ccc(-c3cn4ccsc4n3)cc2)c1`: the IC50 is > 50 µM (inactive).
For `O=C(c1cc(-c2ccncc2)n[nH]1)N1CCC(C(=O)N2CC=C(c3ccccc3)CC2)CC1` the value was 24.3 µM; for `Cc1ccc(Cl)cc1NC(=O)c1cc(-c2ccccn2)n[nH]1`, 13.4 µM.
As for `CC1(C)CC(n2[nH]c(=O)c3c2NC(=O)CSC3c2ccc(OCc3ccccc3)cc2)CCO1` (stereo not drawn), the figure is 17.7 µM.
As for `Cc1ccc(/C=C/C(=O)Nc2ccc3c(c2)OCCO3)cc1`, the figure is 3.76 µM.
On to `COc1ccc(C(=O)Nc2nc(-c3ccc4c(c3)NC(=O)CO4)c(C)s2)cc1OC`, for which the IC50 was 1.72 µM.
Regarding `N#Cc1cc2c(nc1SCC(=O)NCc1ccccc1)CCCC2`, the IC50 is > 50 µM (inactive).
For the molecule `O=C(Nc1cccc(C(F)(F)F)c1)N1CCCn2c(nc3ccccc32)C1`, the IC50 was 20.3 µM.
As for `O=C(Nc1ccc(-c2nnc3n2CCCCC3)cc1)c1ccc2c(c1)OCO2`, the figure is 7.43 µM; as for `Cc1nn(-c2nc3ccccc3[nH]2)c2c1C(c1cccs1)CC(=O)N2` (stereo not drawn), > 50 µM (inactive); as for `Cc1cc(N2CCC(NC(=O)NCc3ccc(F)cc3)C2=O)ccc1F` (stereo not drawn), 15 µM.
For `COC(=O)[C@]1(O)O[C@@]2(C(=O)OC)c3c(oc4cc(C)cc(O)c4c3=O)[C@H]3c4c(oc5cc(C)cc(O)c5c4=O)C[C@H]1[C@H]32` the value was > 50 µM (inactive); for `O=C(Nc1cc(F)c2nc(N3CCCC3)ccc2c1)c1ccco1`, > 50 µM (inactive); for `CC(=O)C1=C(O)[C@]2(O)C(=O)c3c(c(C)c4ccc(C)c(O)c4c3O)C[C@H]2[C@@H](N)C1=O`, 1.49 µM.
As for `Cc1nn(Cc2ccccc2)c2sc(C(=O)Nc3nc4ccccc4[nH]3)cc12`, the figure is 20.8 µM.
Consider `Cc1nc(SCC#N)c2oc3ccccc3c2n1`, for which the IC50 is 40 µM.
As to `Cc1cccc(NC(=O)Nc2ccc(C)n(CC(=O)Nc3ccccc3)c2=O)c1`, the IC50 was 4.73 µM.
As for `O=C(Nc1cccc(OC(=O)c2ccc(Cl)cc2)c1)c1ccc(Cl)cc1`, the figure is 41.2 µM; as for `O=C(NCCCN1CCc2ccccc2C1)c1cc2c(s1)CS(=O)(=O)C2`, > 50 µM (inactive); as for `c1ccc(-n2nnc(-c3noc(-c4ccccn4)n3)c2-c2ccncc2)cc1`, 23.9 µM.
As for `CN1C(=O)[C@@]23C[C@]4([C@@]56C[C@]78SS[C@](CO)(C(=O)N7[C@@H]5Nc5ccccc56)N(C)C8=O)c5ccccc5N[C@@H]4N2C(=O)[C@]1(CO)SS3`, the figure is > 50 µM (inactive); as for `Nc1c(-c2nc(-c3ccc4c(c3)OCO4)cs2)nnn1-c1ccccc1`, 30.8 µM.
For `Oc1cc(OCc2cccc(C(F)(F)F)c2)ccc1-c1ccn[nH]1` the value was 3.84 µM; for `COc1ccc(CCNC(=O)CSc2cn(CCNC(=O)c3ccc(F)cc3)c3ccccc23)cc1OC`, 28.1 µM.
Take `CC(C)OC(=O)c1cc2c(ccn2-c2ccc(F)cc2)n1CC(=O)NC1CCCCC1`: the IC50 is 27.5 µM.
As for `O=C(CNC(=O)c1cc2ccccc2o1)Nc1ccc2c(c1)OCCO2`, the figure is 18.3 µM.
With `Cc1cn[nH]c1C1COCCN1C(=O)c1ccc2ncccc2c1` (stereo not drawn), the IC50 is > 50 µM (inactive).
For `COc1ccc(C(=O)NCCc2nnc3ccc(SCC(=O)NCc4ccc(F)cc4)nn23)cc1` the value was 15.7 µM; for `Cc1c(C(=O)NCc2cccc(Br)c2)oc2c1-c1[nH]ncc1CC2`, 29.5 µM; for `COc1cc(NC(=O)c2cc(CN3CCOCC3)on2)cc(OC)c1`, 20.3 µM.
Consider `CC1OC2CC(O)C1(O)C1=C2C(O)=C(C(N)=O)C(=N)C1=O` (stereo not drawn), for which the IC50 is 12.3 µM.
For `CCCc1cc(=O)n2[nH]c(COc3ccccc3)c(-c3ccccc3)c2n1` the value was 28.8 µM; for `O=C(O)COc1ccccc1/C=C1\CCc2c1nc1ccccc1c2C(=O)O`, > 50 µM (inactive).
For `Cc1nc(N2CCCC2)ncc1C(=O)Nc1ccc(F)c(F)c1` the value was 32.9 µM; for `O=C(Nc1ccc2c(c1)OCCO2)c1ccc(N2CCCCC2)nn1`, 31.6 µM; for `N#Cc1ccccc1Cn1c(=O)n(CCCCC(=O)NCc2ccco2)c(=O)c2ccccc21`, 36.6 µM.
Regarding `Cc1ccc(C)c(Nc2cc(C)nc3nc(-c4ccco4)nn23)c1`, the IC50 was > 50 µM (inactive).
As for `Cc1ccc(C)c(CSC2=NCCN2C(=O)c2ccco2)c1`, the figure is 4.07 µM; as for `COc1ccc(-c2cc3c(=O)n(CC(=O)Nc4ccccc4Cl)ccn3n2)cc1`, 10 µM; as for `COc1c(O)cc(CC(=O)O)c(C(C)=O)c1O`, 10.5 µM.
As for `COc1ccc(CCNC(=O)c2cn(-c3ccc(F)cc3)nn2)cc1OC`, the figure is 20.8 µM; as for `CCCc1nc2sc3c(NCCc4ccc(OC)c(OC)c4)ncnc3c2c2c1CCC2`, below 0.05 µM.
On to `O=C(CNc1nc(Nc2ccccc2F)nc(Nc2ccccc2F)n1)Nc1ccccc1`, for which the IC50 was 27 µM.
As for `O=c1[nH]c2ccc(S(=O)(=O)Nc3ccc(O)c4ccccc34)cc2[nH]1`, the figure is 20 µM; as for `N#Cc1cccc(NC(=O)Cn2cccc(-c3nc(-c4ccccc4)no3)c2=O)c1`, > 50 µM (inactive); as for `CCCN1CCN(C(=O)c2cc(NC(=O)C3CCC3)cc3nc(C)ccc23)CC1`, > 50 µM (inactive).
